Source: patent publication US20260256731A1, “RETINAL VASODILATOR AND PHARMACEUTICAL COMPOSITION” (TEIKYO UNIVERSITY, priority 2022, published 2026)
Read-outs that look alike come from different tables or passages of the source.

How the values were obtained:
retinal blood vessel = conditions: cited from earlier work
porcine retinal artery = experiment: Retinal vasodilation test using porcine retinal extraction artery; type: cell-based, pig
Protocol: Pigs aged 8 to 12 weeks were euthanized. Immediately after euthanization, the eyeballs were excised. A retinal artery was separated from the excised eyeballs (Nagaoka et al., Invest Ophthalmol Vis Sci. 2007 February; 48(2):825-32.). An anterior eye part and a vitreous body were carefully taken out with an anatomical microscope. A posterior eye part was placed in an ice-cold dissection chamber containing a physiological saline solution (PSS: 145.0 mM NaCl, 4.7 mM KCl, 2.0 mM CaCl2), 1.17 mM MgSO4, 1.2 mM NaH2PO4, 5.0 mM glucose, 2.0 mM pyruvic acid, 0.02 mM EDTA, and 3.0 mM [3-(N-morpholino) propanesulfonic acid] (MOPS)) to which 1% albumin was added. A single secondary retinal artery (in-situ inner diameter: 90 to 130 μm, length: 0.6 to 1.0 mm) was carefully dissected using a Dumont microdissection forceps (Fine Science Tools, Inc., Foster City, CA) under observation with a stereomicroscope (model SZX12; Olympus, Melville, NY). After carefully removing the remaining nerve tissue and connective tissue, an artery was transferred to a Lucite-made blood vessel chamber into which a PSS-albumin solution equilibrated with air at room temperature was added for cannula insertion. A glass micro pipette (outer diameter of distal end: 30 to 40 μm) filled with the PSS-albumin solution was used to cannulate one end of the artery, and the outside of the artery was firmly tied to a pipette with 11-0 ophthalmic suture (Alcon, Fort Worth, TX). The other end of the blood vessel was cannulated with a second micro pipette and fixed with a suture. After the cannula insertion, the blood vessel and the pipette were transferred to the stage of an inverted microscope (model CKX41, Olympus); and a video camera (Sony DXC-190, Labtek, Campbell, CA), a video micrometer (Cardiovascular Research Institute, Texas A&M System Health Science Center, College Station, TX), and a data collection system (PowerLab, ADInstruments, Colorado Springs, CO) were connected to each other. Thereafter, the inner diameter was continuously measured and recorded during the experiment. The micro pipette was connected to an independent pressure reservoir (a 30 mL glass syringe). The blood vessel was pressurized to a lumen pressure of 55 cm H2O (40 mmHg) by adjusting the height of the reservoir.
The cannula-inserted arteriole was immersed in PSS at 36° C. to 37° C. to generate a basal tone. […] After the control reaction was terminated, the blood vessel was washed with PSS, and the basal tone was re-generated. […]
(§1) The blood vessel was relaxed with EDTA (1 mM)-calcium-free PSS, and the maximum diameter was obtained at a lumen pressure of 55 cmH2O. The change in diameter of the blood vessel in response to nobiletin was standardized by the maximum vasodilation and expressed as a percentage with respect to the maximum vasodilation. […]

rat aorta = conditions: pre-contracted with phenylephrine; vascular endothelium-independent; cited from earlier work
[1] = system: porcine retinal artery treated with ODQ; experiment: Retinal vasodilation test using porcine retinal extraction artery treated with ODQ (guanylate cyclase inhibitor); type: cell-based, pig
Protocol: (§2) Pigs aged 8 to 12 weeks were euthanized. Immediately after euthanization, the eyeballs were excised. A retinal artery was separated from the excised eyeballs (Nagaoka et al., Invest Ophthalmol Vis Sci. 2007 February; 48(2):825-32.). An anterior eye part and a vitreous body were carefully taken out with an anatomical microscope. A posterior eye part was placed in an ice-cold dissection chamber containing a physiological saline solution (PSS: 145.0 mM NaCl, 4.7 mM KCl, 2.0 mM CaCl2), 1.17 mM MgSO4, 1.2 mM NaH2PO4, 5.0 mM glucose, 2.0 mM pyruvic acid, 0.02 mM EDTA, and 3.0 mM [3-(N-morpholino) propanesulfonic acid] (MOPS)) to which 1% albumin was added. […] Thereafter, the inner diameter was continuously measured and recorded during the experiment. […]
as §1
In the same manner as in Example 1, the porcine retinal extraction artery was treated with ODQ, and the role of guanylate cyclase in the retinal vasodilating effect of nobiletin was evaluated (n=7).

[2] = system: porcine retinal artery denuded of endothelium; experiment: Retinal vasodilation test using porcine retinal extraction artery denuded of endothelium (CHAPS); type: cell-based, pig; conditions: n=11, FIG. 3 (Example 3)
Protocol: as §2, with “added. A single secondary retinal artery (in-situ inner diameter: 90 to 130 μm, length: 0.6 to 1.0 mm) was carefully dissected using a Dumont microdissection forceps (Fine Science Tools, Inc., Foster City, CA) under observation with a stereomicroscope (model SZX12; Olympus, Melville, NY).” for “added.”
The blood vessel was relaxed with EDTA (1 mM)-calcium-free PSS, and the maximum diameter was obtained at a lumen pressure of 55 cmH2O. The change in diameter of the blood vessel in response to nobiletin was standardized by the maximum vasodilation and expressed as a percentage with respect to the maximum vasodilation.

rat pulmonary artery = conditions: cited from earlier work
rat mesenteric artery = conditions: pre-contracted with phenylephrine; vascular endothelium-dependent; cited from earlier work

Question: For `CC#CCC(C)[C@H](O)/C=C/[C@@H]1[C@H]2c3cccc(CCCC(=O)O)c3O[C@H]2C[C@H]1O` (mixture of isomers) [Beraprost], which Maximum vasodilation rate (retinal blood vessel; concentration 10^-7M) is on record?
Answer: 70%

Question: With `O=C1CCc2cc(OCCCCc3nnnn3C3CCCCC3)ccc2N1` [Cilostazol] as the molecule, how does the Maximum vasodilation rate (retinal blood vessel; concentration 10^-5M) read?
Answer: 40%

Question: For `COc1ccc(-c2cc(=O)c3c(OC)c(OC)c(OC)c(OC)c3o2)cc1OC` [Nobiletin, 2-(3,4-Dimethoxyphenyl)-5,6,7,8-tetramethoxychromen-4-one], which “retinal vasodilating effect compared with positive control SNP” value (porcine retinal artery; FIG. 1 (Example 1)) is on record?
Answer: higher than that of SNP

Question: What about the Maximum vasodilation rate (porcine retinal artery; concentration 10^-4M, percentage with respect to the maximum vasodilation) of the same molecule?
Answer: 90%

Question: What about the retinal vasodilating effect (porcine retinal artery; extracted porcine retinal artery, FIG. 1 (Example 1)) of the same molecule?
Answer: strong retinal vasodilating effect in a dose-dependent manner

Question: What about the “vasodilating action in comparison with known medications” value (porcine retinal artery; influence of the solvent excluded, Table 1) of the same molecule?
Answer: most powerful vasodilating action

Question: And the vasodilating action (rat aorta)?
Answer: vasodilating action

Question: What about the “retinal vasodilating effect after treating the blood vessel with ODQ” value ([1]; ODQ 0.1 μM, 30 minutes, FIG. 1 (Example 1)) of the same molecule?
Answer: suppressed

Question: What about the “retinal vasodilating effect after addition of ODQ” value ([1]; n=7, FIG. 4 (Example 4)) of the same molecule?
Answer: suppressed

Question: And the “vasodilating effect in artery with vascular endothelium removed (denudation) compared with artery not denuded” value [2]?
Answer: suppressed

Question: And the vasodilator response (rat pulmonary artery)?
Answer: did not occur

Question: And the vasodilating action (rat mesenteric artery)?
Answer: vasodilating action

Question: Which Maximum vasodilation rate (retinal blood vessel; concentration 10^-4M) does the source give for `Oc1ccc(C=Cc2cc(O)cc(O)c2)cc1` [Resveratrol] here?
Answer: 60%

Question: With `CCCCCCCC(=O)CC[C@@H]1[C@@H](C/C=C\CCCC(=O)O)[C@@H](O)C[C@H]1O` [Unoprostone] as the molecule, how does the Maximum vasodilation rate (retinal blood vessel; concentration 10^-5M) read?
Answer: 30%

B1: Adiponectin (protein, UniProt Q15848 19-244, looked up)
Adiponectin: ETTTQGPGVLLPLPKGACTGWMAGIPGHPGHNGAPGRDGRDGTPGEKGEKGDPGLIGPKGDIGETGVPGAEGPRGFPGIQGRKGEPGEGAYVYRSAFSVGLETYVTIPNMPIRFTKIFYNQQNHYDGSTGKFHCNIPGLYYFAYHITVYMKDVKVSLFKKDKAMLFTYDQYQENNVDQASGSVLLHLEVGDQVWLQVYGEGERNGLYADNDNDSTFTGFLLYHDTN
Question: For B1, which Maximum vasodilation rate (retinal blood vessel; concentration 8 μg/mL) is on record?
Answer: 50%
